Laboratory results reported in PMC12329412, “Study of the mass balance, biotransformation, and safety of [^14C]IBI351 in healthy Chinese subjects” (Journal of Biomedical Research, 2024).

Assays:
[1] = Radioactive metabolite profiling in pooled plasma, urine and feces; type: in vivo, human; conditions: for Plasma (0–144 h) % of AUC (share of total plasma radioactivity exposure) / Plasma (0–144 h) Metabolite/parent drug (%): pooled plasma 0–144 h; for Plasma (0–144 h) Metabolite/parent drug (%): relative to the parent drug; for Feces+urine % of dose: sum of feces 0–192 h and urine 0–96 h; for Feces (0–192 h) % of dose: pooled feces 0–192 h
Description: Moreover, four plasma samples at 1 h, 4 h, 48 h, and 96 h were obtained by mixing them in equal volumes. Urine samples were pooled across individuals at an equal volume to obtain one pooled sample within each time period of 0–24 h, 24–48 h, and 48–96 h. Fecal samples (0–192 h) were pooled at the same weight percentages across collection intervals for each subject. Moreover, fecal samples were pooled across individuals at an equal weight to obtain one pooled sample within each time period of 0–72 h, 72–120 h, and 120–192 h. Plasma, urine, and fecal homogenates were extracted and concentrated using organic solvents, and then the redissolved solutions were used for metabolite profile analysis. The plasma, urine, and fecal extracts were separated on HPLC columns, and the HPLC flow fractions were collected in Deepwell LumaPlateTM-96 plates at 15 s/fraction using an automatic fraction collector. The radioactivity of each fraction was quantified using a microplate detector with ARC® Convert and Evaluation software (3.0.2.379) and transformed to obtain the radioactive metabolite spectra. The radioactive metabolite spectra of each sample were integrated to acquire the peak area of each radioactive metabolite peak, the proportion of each spectral peak to the total radioactive intensity of the sample, and the proportion of the radioactivity of the major metabolites to the TRA in the corresponding blood, urine, and fecal samples. Therefore, the ratio of metabolites' concentrations to the total drug exposure (AUC) in the plasma and the ratio of each metabolite's level to the dose administered in the urine and feces were calculated. Liquid chromatography with low-energy radionuclide detection and mass spectrometry was used to identify the main metabolites in human plasma, urine, and fecal samples and to identify the possible biotransformation pathways of IBI351 in these samples.

[2] = ref [11],[19]; cited from earlier work

Row | SMILES | Plasma (0–144 h) % of AUC (share of total plasma radioactivity exposure) [1] | Plasma (0–144 h) Metabolite/parent drug (%) [1] | Feces+urine % of dose [1] | Feces (0–192 h) % of dose [1] | Urine (0–96 h) % of dose ([1]; pooled urine 0–96 h) | average time to reach Cmax [2] | plasma protein binding rate [2] | terminal elimination half-life [2] | volume of distribution [2] | grade of associated adverse events [2]
1 | C=C(F)C(=O)N1CCN(c2nc(OC[C@@H]3CCCN3C)nc3c2CCN(c2cccc4cccc(Cl)c24)C3)C[C@@H]1CC#N [adagrasib] |  |  |  |  |  | 6 h | 98% | 23 h | 942 L | 
2 | C=CC(=O)N1CCN(c2nc(=O)n(-c3c(C)ccnc3C(C)C)c3nc(-c4c(O)cccc4F)c(F)cc23)[C@@H](C)C1 [sotorasib] |  |  |  |  |  | 1 h |  | 5 h | 211 L | ≥ 3

Now from value to compound, other results behind:

Row | Plasma (0–144 h) % of AUC (share of total plasma radioactivity exposure) [1] | Plasma (0–144 h) Metabolite/parent drug (%) [1] | Feces+urine % of dose [1] | Feces (0–192 h) % of dose [1] | Urine (0–96 h) % of dose ([1]; pooled urine 0–96 h) | SMILES | average time to reach Cmax [2] | plasma protein binding rate [2] | terminal elimination half-life [2] | volume of distribution [2] | grade of associated adverse events [2]
3 | 0.09 % of AUC | 1.98% | 0.35 % of dose |  |  | CCC(=O)N1CCN2c3c(c(=O)n(-c4c(C)ccnc4C(C)C)c4nc(-c5c(O)cccc5F)c(Cl)cc34)N(C)C(=O)C2C1 (centres unmarked) [M618] |  |  |  |  | 
4 |  | 5.95% | 2.70 % of dose | 2.47 % of dose |  | Cc1ccnc(C(C)C)c1-n1c(=O)c2c(c3cc(Cl)c(-c4c(O)cccc4F)nc31)N1CCN(C(=O)C(O)CO)CC1C(=O)N2C (centres unmarked) [M650] |  |  |  |  | 
5 | 6.17 % of AUC | 135.90% | 45.36 % of dose | 39.87 % of dose | 5.49 % of dose | Cc1ccnc(C(C)C)c1-n1c(=O)c2c(c3cc(Cl)c(-c4c(O)cccc4F)nc31)N1CCN(C(=O)CCSCC(N)C(=O)O)CC1C(=O)N2C (centres unmarked) [M737] |  |  |  |  | 
6 | 0.05 % of AUC | 1.10% | 2.70 % of dose | 2.59 % of dose |  | CC(=O)NC(CSCCC(=O)N1CCN2c3c(c(=O)n(-c4c(C)ccnc4C(C)C)c4nc(-c5c(O)cccc5F)c(Cl)cc34)N(C)C(=O)C2C1)C(=O)O (centres unmarked) [M779] |  |  |  |  | 
